Reference: article PMC2192259 (The Journal of Experimental Medicine, 1995)
“Also recorded” adds a separate entry of the source.

System: 20S proteasome
Test: 20S proteasome from BALB.SV cells in assay buffer
Details: 37C, up to 24 h

## MDIGAYPHFMPTNLAGDPY
  fragment found: YPHFMPTNL, major; also recorded: YPH- FMPTNL(ox)
